Results on 3 compounds are retold here after patent US6569904B1, “Agent for lowering endothelin levels” (Orion Corporation, priority 1998, dated 2003).

Assay type in all cases: in vivo, postmenopausal breast cancer patients
One series relates to endothelin-1 (ET-1). Briefly: Effect on endothelin-1 level in plasma of patients treated orally for one year. The following applies: for Plasma level of endothelin-1, at 6 months: at 6 months of oral treatment (toremifene 40 mg/d, tamoxifen 20 mg/d, estradiol valerate 2 mg/d); for Plasma level of endothelin-1, at 6 months / Plasma level of endothelin-1, at 12 months / Plasma level of endothelin-1, before treatment: mean±SE; for Plasma level of endothelin-1, at 12 months: at 12 months of oral treatment (toremifene 40 mg/d, tamoxifen 20 mg/d, estradiol valerate 2 mg/d); for Plasma level of endothelin-1, before treatment: baseline before treatment, breast cancer patients; for Effect on endothelin-1 level in patients during the treatment (in words): oral treatment for one year. How it is done: Effect of toremifene on endothelin-1 level in plasma
(§1) Postmenopausal breast cancer patients were treated with 40 mg/d toremifene (Fareston™) (n=19), 20 mg/d tamoxifen (Tadex™) (n=25) or 2 mg/d estradiol valerate (Progynova™)(n=14) orally for one year. The 44 patients of the antiestrogen groups had been operated on breast cancer 6-8 weeks before the trial. Plasma samples (10 ml) were collected before and at 6 and 12 months of each regimen, and plasma levels of endothelin-1 (ET-1) and nitrite/nitrate (NOx) were measured by established methods. The data (presented as mean±SE) were analyzed by two-way analysis of variance (ANOVA) for repeated measures. When differences were indicated by ANOVA, their significances at individual timepoints were calculated by means of a t-test for independent means (between-groups comparison) or a t-test for dependent means (comparison to baseline within a single group). For determination of correlation between two variables, the Pearsson coefficient was calculated.

In another series the test system is nitrite/nitrate (NOx). The experiment in a line: Plasma nitrite/nitrate (NOx) level in patients treated orally for one year. The following applies: mean±SE; for Plasma level of nitrite/nitrate, at 6 months: at 6 months of oral treatment; for Plasma level of nitrite/nitrate, at 12 months: at 12 months of oral treatment; for Plasma level of nitrite/nitrate, before treatment: baseline before treatment, breast cancer patients. How it is done: as §1

Series [1] in a line: Occurrence of thromboses and cerebrovascular accidents in three clinical adjuvant trials. Conditions: for Cerebrovascular accidents (number of occurrences) / Deep vein thromboses (number of occurrences): oral toremifene 40 mg/d (1120 patients) vs oral tamoxifen 20 mg/day (1110 patients) for 3 years, serious events. Here is the method: Occurrence of thromboses and cerebrovascular accidents
In three clinical adjuvant trials effects of oral toremifene 40 mg/d was compared to oral tamoxifen 20 mg/day for 3 years in postmenopausal breast cancer patients. The occurrence of serious deep vein thromboses and serious cerebrovascular accidents in toremifen and tamoxifen groups are summarized in Table 2.

Turning to `CC/C(=C(\c1ccccc1)c1ccc(OCCN(C)C)cc1)c1ccccc1` [Tamoxifen, tamoxifen], in the series with endothelin-1 (ET-1), the “Plasma level of endothelin-1, at 6 months” value is 3.5 ± 0.2 ng/L; the “Plasma level of endothelin-1, at 12 months” value came to 3.2 ± 0.2 ng/L; the “Plasma level of endothelin-1, before treatment” value came out at 3.5 ± 0.2 ng/L; the “Effect on endothelin-1 level in patients during the treatment (in words)” value is reported as “no effect”. In addition, in the series with nitrite/nitrate (NOx), the “Plasma level of nitrite/nitrate, at 6 months” value turned out to be 22.8 ± 4.0 µmol/L; the “Plasma level of nitrite/nitrate, at 12 months” value came to 20.4 ± 2.5 µmol/L; the “Plasma level of nitrite/nitrate, before treatment” value turned out to be 20.6 ± 2.3 µmol/L. In series [1], the “Cerebrovascular accidents (number of occurrences)” value is reported as 14 and the “Deep vein thromboses (number of occurrences)” value worked out at 13. Also, the “Vascular complications (deep vein thrombosis and cerebrovascular events), comparison in words” value in series [1] (tamoxifen treated patients compared with toremifene treated patients) is listed as “clearly more vascular complications”.

As for `CN(C)CCOc1ccc(/C(=C(/CCCl)c2ccccc2)c2ccccc2)cc1` [Toremifene, toremifene], in the series on endothelin-1 (ET-1), the “Plasma level of endothelin-1, at 6 months” value came out at 2.6 ± 0.2 ng/L; the “Plasma level of endothelin-1, at 12 months” value was 2.6 ± 0.2 ng/L; the “Plasma level of endothelin-1, before treatment” value stood at 3.0 ± 0.2 ng/L; the “Effect on endothelin-1 level in patients during the treatment (in words)” value is given as “significantly lowered endothelin-1 level”. Also, in the series with nitrite/nitrate (NOx), the “Plasma level of nitrite/nitrate, at 6 months” value is 21.0 ± 2.5 µmol/L; the “Plasma level of nitrite/nitrate, at 12 months” value came out at 21.6 ± 3.1 µmol/L; the “Plasma level of nitrite/nitrate, before treatment” value stood at 23.4 ± 4.0 µmol/L. For the same compound, in series [1], the “Cerebrovascular accidents (number of occurrences)” value came out at 2 and the “Deep vein thromboses (number of occurrences)” value came out at 7.

In the case of `CCCCC(=O)O[C@H]1CC[C@H]2[C@@H]3CCc4cc(O)ccc4[C@H]3CC[C@]12C` [Estrogen, estradiol valerate], in the series on endothelin-1 (ET-1), the “Plasma level of endothelin-1, at 6 months” value was determined as 2.7 ± 0.2 ng/L; the “Plasma level of endothelin-1, at 12 months” value was found to be 2.7 ± 0.2 ng/L; the “Plasma level of endothelin-1, before treatment” value was found to be 2.8 ± 0.2 ng/L. In addition, in the series with nitrite/nitrate (NOx), the “Plasma level of nitrite/nitrate, at 6 months” value turned out to be 21.5 ± 3.2 µmol/L; the “Plasma level of nitrite/nitrate, at 12 months” value amounted to 18.5 ± 2.7 µmol/L; the “Plasma level of nitrite/nitrate, before treatment” value came out at 25.8 ± 3.7 µmol/L.
